According to patent US12194058B2, “Cancer treatment regimen using anti-parasitic compounds and gut microbiome modulating agents” (FLORIDA ATLANTIC UNIVERSITY BOARD OF TRUSTEES, priority 2021, dated 2025):
Entries after “also recorded” stand apart in the source; their conditions may differ.

Columns and labels:
MDA-MB-468 cells = experiment: three-dimensional spheroid multi-parametric assay, MDA-MB-468; assay type: cell-based, human; details: MDA-MB-468 spheroids, 24 h; for activity / potency in cell line (image analysis, FIG. 2): average of three experiments
Protocol: Controls included 10 μM ABT737, 5 μg/mL 5-fluorouracil, 0.5 μg/mL doxorubicin, media alone, and solvent controls. After treatments, cells were labeled with the cell permeable nuclear stain Hoechst 33342, a marker for cleaved caspase 3/7, and the cell impermeable nucleic acid stain 7AAD for three hours. Cells were fixed then images acquired using a high content imager at 10× magnification. Scale bars represent 200 μm. The experiment was repeated 3 times.
MDA-MB-231 or MDA-MB-468 cells were plated on a black plate with clear bottom low adherence spheroid 384-well tissue culture plate (Corning 3830; Corning NY) at a concentration of 1,500 cells per well in ice-cold complete media without phenol red containing 2.5% matrigel (BD Biosciences, Billerica, MA) in a final volume of 30 μL/well and allowed to adhere for 24 hours. After confirming the formation of a spheroid, 30 μL of medium containing treatment at two times the final concentration was added. Treatments consisted of 10, 5, 2.5 or 1.25 μM oxfendazole (OFZ), 5, 2.5, 1.25 or 0.625 μM parbendazole (PBZ) or a combination 10/5, 5/2.5, 2.5/1.25 or 1.25/0.625 μM OFZ/PBZ. Controls included 10 μM ABT737, 5 μg/mL 5-fluorouracil, 0.5 μg/mL doxorubicin, media alone, and solvent controls. Solvent for drug treatments was 10% DMSO by weight. Cells were incubated with treatment for 24 h. At the end of this incubation 20 μL/well of a staining mixture containing 2 drops/mL NucBlue Live Cell Stain Hoechst 33342 (Molecular Probes, Eugene, OR), 5 μM CellEvent™ Caspase-3/7 Green Detection Reagent (Molecular Probes, Eugene, OR) and […] 7-amino-actinomycin D (7AAD; Sigma, St. Louis, MO) were added and allowed to incubate for 3 h. Cells were fixed with 4% paraformaldehyde by weight. Images were acquired using the ImageXpress® Micro XLS widefield HCS (Molecular Devices, Sunnyvale, CA), with a 10× Plan Fluor objective, binning at 2 and focusing on plate bottom, then offset by bottom thickness. A stack of 8 images separated by 10 μm starting at the well bottom and covering approximately the lower half of each spheroid were acquired. The best focus projection of this stack was analyzed using the Multi-Wavelength Cell Scoring Module of the MetaXpress 5.1.0.3 software (Molecular Devices, Sunnyvale, CA). The results were plotted using Microsoft excel (Redmond, WA). To normalize results, the solvent control values were subtracted from the 7AAD and the Caspase 3 percent positive results for treatment samples. Total cell count was expressed as a percentage comparing treatments to respective solvent controls. Compounds were tested in duplicate within plates. The in vitro effectiveness of BZs, either singly or in combination on tumor cytotoxicity using MDA-MB468 human breast cancer cell line spheroids was assessed. […]

MDA-MB-231 cells = experiment: three-dimensional spheroid multi-parametric assay, MDA-MB-231; assay type: cell-based, human; details: MDA-MB-231 spheroids, 24 h; for activity / potency in cell line (image analysis, FIG. 4): average of three experiments
Protocol: MDA-MB-231 or MDA-MB-468 cells were plated on a black plate with clear bottom low adherence spheroid 384-well tissue culture plate (Corning 3830; Corning NY) at a concentration of 1,500 cells per well in ice-cold complete media without phenol red containing 2.5% matrigel (BD Biosciences, Billerica, MA) in a final volume of 30 μL/well and allowed to adhere for 24 hours. After confirming the formation of a spheroid, 30 μL of medium containing treatment at two times the final concentration was added. Treatments consisted of 10, 5, 2.5 or 1.25 μM oxfendazole (OFZ), 5, 2.5, 1.25 or 0.625 μM parbendazole (PBZ) or a combination 10/5, 5/2.5, 2.5/1.25 or 1.25/0.625 μM OFZ/PBZ. Controls included 10 μM ABT737, 5 μg/mL 5-fluorouracil, 0.5 μg/mL doxorubicin, media alone, and solvent controls. Solvent for drug treatments was 10% DMSO by weight. Cells were incubated with treatment for 24 h. At the end of this incubation 20 μL/well of a staining mixture containing 2 drops/mL NucBlue Live Cell Stain Hoechst 33342 (Molecular Probes, Eugene, OR), 5 μM CellEvent™ Caspase-3/7 Green Detection Reagent (Molecular Probes, Eugene, OR) and […] 7-amino-actinomycin D (7AAD; Sigma, St. Louis, MO) were added and allowed to incubate for 3 h. Cells were fixed with 4% paraformaldehyde by weight. Images were acquired using the ImageXpress® Micro XLS widefield HCS (Molecular Devices, Sunnyvale, CA), with a 10× Plan Fluor objective, binning at 2 and focusing on plate bottom, then offset by bottom thickness. A stack of 8 images separated by 10 μm starting at the well bottom and covering approximately the lower half of each spheroid were acquired. The best focus projection of this stack was analyzed using the Multi-Wavelength Cell Scoring Module of the MetaXpress 5.1.0.3 software (Molecular Devices, Sunnyvale, CA). The results were plotted using Microsoft excel (Redmond, WA). To normalize results, the solvent control values were subtracted from the 7AAD and the Caspase 3 percent positive results for treatment samples. Total cell count was expressed as a percentage comparing treatments to respective solvent controls. Compounds were tested in duplicate within plates. The in vitro effectiveness of BZs, either singly or in combination on tumor cytotoxicity using MDA-MB468 human breast cancer cell line spheroids was assessed.
FIG. 3 illustrates the in vitro effectiveness of BZs, either singly or in combination on tumor cytotoxicity using MDA-MB4231 human breast cancer cell line spheroids. […] Images were analyzed to determine cell counts based on DNA (Hoechst 33342 stain; blue), those dying through apoptosis by following cleavage of caspase 3, and cells dead or dying as measured by the loss of their membrane integrity (7-aminoactinomycin; red). […]

[1] = cited from earlier work
[2] = test system: 4T1Br4 mammary tumor cells; experiment: 4T1Br4 triple negative breast cancer model in BALB/c mice, oral gavage treatment
Description: Light to ten-week-old BALB/c mice (Charles River Laboratories; total of 48 mice) are orthotopically injected with 25,000-50,000 4T1Br4 mammary tumor cells in 100 microliters unilaterally into 4th mammary fat pad. Primary tumor growth was monitored by caliper measurements and biweekly body weight and wellness checks. When tumor size reached 0.5-0.7 cu cm, animals were divided into 4 experimental groups: 1) No Treatment (n=8), 2) Single OFZ Treatment (n=8), 3) Single CMP Treatment (n=16), 4) Combination CMP and OFZ/PBZ Treatment (n=16). Treatments started at 2 weeks post cancer cell inoculation. The following are the oral gavage doses: OFZ, 5 mg/kg; PBZ, 9 mg/kg; FBZ, 10 mg/kg; CMPs 10 mg/kg. All drugs are dissolved in sterile saline and final gavage volume is 200 microliters per mouse. […] When primary tumors reach 1 cu cm, they were excised under general anesthesia for all groups except for half of the animals in single CMP and combination CMP and BZ treatments. For those groups, half of the animals in each of these drug treatments received tumor excision surgery and for the remaining half, the primary tumors are untouched throughout the course of the experiment. Primary tumor size, percentage tumor growth compared to pre-treatment baseline, body weights and survival were assessed. Upon death, necropsy was conducted to assess metastatic tumor growth in distal organs. […] Treatment started 2 weeks past orthotopic cancer cell inoculation. […] Values are represented as means+SEMs.
Treatment started 2 weeks post-cancer cell inoculation. […] Data are represented as group averages+SEMs.
Measures were averaged for each week and represented as Means+SEMs. Treatment started two weeks post-inoculation with cancer cells.
Necropsy was then conducted on the animals that expired for assessment of gross metastasis in lungs, brain and liver that may be responsible for expiration of mice. Detailed necropsy was performed and archived for each animal.

[3] = cited from earlier work; remark: listed apart in the source

SMILES	death by loss of membrane integrity (7AAD) (MDA-MB-468 cells)	activity / potency in cell line (image analysis, FIG. 2) (MDA-MB-468 cells)	caspase cleavage (induction of apoptosis) (MDA-MB-231 cells)	activity / potency in cell line (image analysis, FIG. 4) (MDA-MB-231 cells)	plasma half-life ([1]; in animals) [h]	tolerability / toxicity ([1]; in vivo)	time of expiration / euthanasia of representative mouse ([2]; days post cancer cell inoculation) [days]	lung metastasis at necropsy ([2]; gross necropsy)	cause of death of group ([2]; necropsy, listed as OFZ Alone)	angiogenesis at tumor / excision site ([2]; representative mouse)	splenomegaly ([2]; representative mouse, necropsy)	body weight across treatment weeks (FIG. 7) ([2]; tumor-bearing mice, measured biweekly)	survival at 6th week of treatment (animals remaining) ([2]; week 6 of treatment)	caspase 3/7 cleavage (MDA-MB-468 cells)	time to peak blood levels ([3]; after oral administration) [h]	time to full recovery of liver function after cessation of treatment ([3]; transient liver function suppression) [weeks]
COC(=O)Nc1nc2ccc([S+]([O-])c3ccccc3)cc2[nH]1 (stereo not shown) [OFZ, (5-(phyenylsulphinyl)-18-benzimidazole-2yl) carmabic acid methyl ester]	favoring death by loss of membrane integrity	active	caused caspase cleavage	more modest activity	8.5 to 11	extremely well-tolerated with no known toxicity	32	extensive metastases in the mouse lungs	expired entirely due to lung metastasis; also recorded: metastatic process in the lungs as cause of death	angiogenesis is visible	instances of splenomegaly	significant decline in bodyweight measurements	deceased			
CCCCc1ccc2nc(NC(=O)OC)[nH]c2c1 [PBZ, N-(6-butyl-1H-benzimidazol-2-yl) carbamic acid methyl ester]		active; also recorded: statistically significantly more potent than OFZ	caused caspase cleavage	statistically significantly more potent than OFZ										caused more caspase cleavage	6 to 8	≤ 2
